The source of these data is patent US10730874B2 (Shire Human Genetic Therapies, Inc., priority 2018, dated 2020).

pEC50: −log10 of the molar value.

In this test the target is human activated kallikrein enzyme (plasma kallikrein) (Homo sapiens (Human), UniProt P03952). The experiment in a line: Inhibition of human activated plasma kallikrein, fluorogenic peptide substrate assay, 500 pM enzyme format. It counts as biochemical. The settings on record: 500 pM activated kallikrein enzyme, 300 uM Pro-Phe-Arg-7-amido-4-methylcoumarin substrate, 30 min preincubation, 10 min at RT; read-out: Primary Dose Response Assay: Average EC50. An outline of the steps: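 Buffer 20 mM Tris pH 7.5, EDTA, NaCl, PEG-400, Triton X-100; 300 uM Pro-Phe-Arg-AMC; enzyme–inhibitor preincubation 30 min RT. Format one: 500 pM kallikrein, 10 min RT reaction; format two: 5 pM kallikrein, 18 h RT reaction. Fluorescence read at 460 nm (380 nm excitation).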
Sequence of human activated kallikrein enzyme (plasma kallikrein) (P03952 391-638): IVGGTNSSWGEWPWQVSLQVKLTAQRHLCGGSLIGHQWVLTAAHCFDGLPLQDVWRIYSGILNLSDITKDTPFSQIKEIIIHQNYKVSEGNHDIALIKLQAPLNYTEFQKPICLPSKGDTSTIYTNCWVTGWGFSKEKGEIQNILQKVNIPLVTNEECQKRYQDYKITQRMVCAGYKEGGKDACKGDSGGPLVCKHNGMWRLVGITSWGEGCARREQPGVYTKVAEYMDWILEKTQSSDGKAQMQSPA
Sequence of human activated kallikrein enzyme (plasma kallikrein) (P03952 20-390 partner): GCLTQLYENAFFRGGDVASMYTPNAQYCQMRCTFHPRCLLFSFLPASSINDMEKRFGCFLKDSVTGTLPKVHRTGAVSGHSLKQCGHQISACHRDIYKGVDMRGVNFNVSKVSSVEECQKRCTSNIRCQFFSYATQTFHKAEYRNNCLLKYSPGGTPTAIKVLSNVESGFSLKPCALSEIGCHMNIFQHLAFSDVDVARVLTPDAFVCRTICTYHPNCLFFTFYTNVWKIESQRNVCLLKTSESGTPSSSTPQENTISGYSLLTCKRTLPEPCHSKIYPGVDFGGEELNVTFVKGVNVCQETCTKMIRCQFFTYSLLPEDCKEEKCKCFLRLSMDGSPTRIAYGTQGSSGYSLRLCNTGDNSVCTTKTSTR
The pEC50 is −log10 of the EC50, conventionally taken in molar units. Consider `COC(=O)C(F)Cc1cc(C2CC2)cn2cc(Cn3cc(C(=O)NCc4ncn5ccc(Cl)c(F)c45)nn3)nc12` (stereo not drawn) [Example I-224a, methyl 3-(2-((4-(((7-chloro-8-fluoroimidazo[1,5-a]pyridin-1-yl)methyl)carbamoyl)-1H-1,2,3-triazol-1-yl)methyl)-6-cyclopropylimidazo[1,2-a]pyridin-8-yl)-2-fluoropropanoate], for which the pEC50 was over 9.00. As for `O=C(NCc1ncn2ccc(Cl)c(F)c12)c1cn(Cc2cn3cc(C4CC4)cc(-c4cnoc4)c3n2)nn1` [Example I-225, N-((7-chloro-8-fluoroimidazo[1,5-a]pyridin-1-yl)methyl)-1-((6-cyclopropyl-8-(isoxazol-4-yl)imidazo[1,2-a]pyridin-2-yl)methyl)-1H-1,2,3-triazole-4-carboxamide], the pEC50 was over 9.00. The same measure for `O=C(O)c1cn(-c2cc(C3CC3)cn3cc(Cn4cc(C(=O)NCc5ncn6ccc(Cl)c(F)c56)nn4)nc23)cn1` [Example I-226, 1-(2-((4-((7-chloro-8-fluoroimidazo[1,5-a]pyridin-1-yl)methylcarbamoyl)-1H-1,2,3-triazol-1-yl)methyl)-6-cyclopropylimidazo[1,2-a]pyridin-8-yl)-1H-imidazole-4-carboxylic acid]: over 9.00. To `CCOC(=O)CC(c1cn2cc(C3CC3)ccc2n1)n1cc(C(=O)NCc2ncn3ccc(Cl)c(F)c23)nn1` (stereo not drawn) [Example I-227a, ethyl 3-(4-(((7-chloro-8-fluoroimidazo[1,5-a]pyridin-1-yl)methyl)carbamoyl)-1H-1,2,3-triazol-1-yl)-3-(6-cyclopropylimidazo[1,2-a]pyridin-2-yl)propanoate] belongs 7.00 to 8.00. To `O=C(O)CC(c1cn2cc(C3CC3)ccc2n1)n1cc(C(=O)NCc2ncn3ccc(Cl)c(F)c23)nn1` (stereo not drawn) [Example I-227b, 3-(4-(((7-chloro-8-fluoroimidazo[1,5-a]pyridin-1-yl)methyl)carbamoyl)-1H-1,2,3-triazol-1-yl)-3-(6-cyclopropylimidazo[1,2-a]pyridin-2-yl)propanoic acid] belongs 5.70 to 7.00; to `C#Cc1cc(C2CC2)cn2cc(Cn3cc(C(=O)NCc4ncn5ccc(Cl)c(F)c45)nn3)nc12` [Example I-228, N-((7-chloro-8-fluoroimidazo[1,5-a]pyridin-1-yl)methyl)-1-((6-cyclopropyl-8-ethynylimidazo[1,2-a]pyridin-2-yl)methyl)-1H-1,2,3-triazole-4-carboxamide], over 9.00; to `O=C(NCc1ncn2ccc(Cl)c(F)c12)c1cn(Cc2cc3ccc(C4CC4)cc3s2)nn1` [Example I-229, N-((7-chloro-8-fluoroimidazo[1,5-a]pyridin-1-yl)methyl)-1-((6-cyclopropylbenzo[b]thiophen-2-yl)methyl)-1H-1,2,3-triazole-4-carboxamide], 7.00 to 8.00.

Consider `O=C(O)c1cnn(-c2cc(C3CC3)cn3cc(Cn4cc(C(=O)NCc5ncn6ccc(Cl)c(F)c56)nn4)nc23)c1` [Example I-230, 1-(2-((4-(((7-chloro-8-fluoroimidazo[1,5-a]pyridin-1-yl)methyl)carbamoyl)-1H-1,2,3-triazol-1-yl)methyl)-6-cyclopropylimidazo[1,2-a]pyridin-8-yl)-1H-pyrazole-4-carboxylic acid], for which the pEC50 is over 9.00. On to `O=C(NCc1ncn2ccc(Cl)c(F)c12)c1cn(Cc2cc3cc(C4CC4)cc(C(F)(F)F)n3n2)nn1` [Example I-231, N-((7-chloro-8-fluoroimidazo[1,5-a]pyridin-1-yl)methyl)-1-((5-cyclopropyl-7-(trifluoromethyl)pyrazolo[1,5-a]pyridin-2-yl)methyl)-1H-1,2,3-triazole-4-carboxamide], for which the negative-log EC50 (pEC50) is over 9.00. For `O=C(NCc1ncn2ccc(Cl)c(F)c12)c1cn(Cc2cc3cc(C4CC4)ccc3[nH]2)nn1` [Example I-232, N-((7-chloro-8-fluoroimidazo[1,5-a]pyridin-1-yl)methyl)-1-((5-cyclopropyl-1H-indol-2-yl)methyl)-1H-1,2,3-triazole-4-carboxamide], the pEC50 was 7.00 to 8.00. The same measure for `Cn1c(Cn2cc(C(=O)NCc3ncn4ccc(Cl)c(F)c34)nn2)cc2cc(C3CC3)ccc21` [Example I-233, N-((7-chloro-8-fluoroimidazo[1,5-a]pyridin-1-yl)methyl)-1-((5-cyclopropyl-1-methyl-1H-indol-2-yl)methyl)-1H-1,2,3-triazole-4-carboxamide]: 8.00 to 9.00; for `O=C(NCc1ncn2ccc(Cl)c(F)c12)c1cn(Cc2cc3ccc(Cl)cc3s2)nn1` [Example I-234, N-((7-chloro-8-fluoroimidazo[1,5-a]pyridin-1-yl)methyl)-1-((6-chlorobenzo[b]thiophen-2-yl)methyl)-1H-1,2,3-triazole-4-carboxamide]: 7.00 to 8.00. The same measure for `O=C(NCc1ncn2ccc(Cl)c(F)c12)c1cn(Cc2cc3ccc(C4CC4)cc3[nH]2)nn1` [Example I-235, N-((7-chloro-8-fluoroimidazo[1,5-a]pyridin-1-yl)methyl)-1-((6-cyclopropyl-1H-indol-2-yl)methyl)-1H-1,2,3-triazole-4-carboxamide]: 5.70 to 7.00.

On to `O=C(NCc1ncn2ccc(Cl)c(F)c12)c1cn(Cc2nc3cc(C4CC4)ccc3[nH]2)nn1` [Example I-236, N-((7-chloro-8-fluoroimidazo[1,5-a]pyridin-1-yl)methyl)-1-((5-cyclopropyl-1H-benzo[d]imidazol-2-yl)methyl)-1H-1,2,3-triazole-4-carboxamide], for which the negative-log EC50 (pEC50) is 7.00 to 8.00.

For `CC(C)(C#N)Cc1cc(C2CC2)cn2cc(Cn3cc(C(=O)NCc4ncn5ccc(Cl)c(F)c45)cn3)nc12` [Example I-237, N-((7-chloro-8-fluoroimidazo[1,5-a]pyridin-1-yl)methyl)-1-((8-(2-cyano-2-methylpropyl)-6-cyclopropylimidazo[1,2-a]pyridin-2-yl)methyl)-1H-pyrazole-4-carboxamide], the negative-log EC50 (pEC50) was over 9.00.

Take `CC(C)(Cc1cc(C2CC2)cn2cc(Cn3cc(C(=O)NCc4ncn5ccc(Cl)c(F)c45)cn3)nc12)c1nn[nH]n1` [Example I-238, N-((7-chloro-8-fluoroimidazo[1,5-a]pyridin-1-yl)methyl)-1-((6-cyclopropyl-8-(2-methyl-2-(2H-tetrazol-5-yl)propyl)imidazo[1,2-a]pyridin-2-yl)methyl)-1H-pyrazole-4-carboxamide]: the pEC50 is over 9.00. For `O=C(NCc1ncn2ccc(Cl)c(F)c12)c1cn(Cc2cn3cc(C4CC4)c(F)cc3n2)nn1` [Example I-239, N-((7-chloro-8-fluoroimidazo[1,5-a]pyridin-1-yl)methyl)-1-((6-cyclopropyl-7-fluoroimidazo[1,2-a]pyridin-2-yl)methyl)-1H-1,2,3-triazole-4-carboxamide], the pEC50 is 8.00 to 9.00.

On to `O=C(NCc1ncn2ccc(Cl)c(F)c12)c1cn(Cc2nc3ccc(C4CC4)cn3c2F)nn1` [Example I-240, N-((7-chloro-8-fluoroimidazo[1,5-a]pyridin-1-yl)methyl)-1-((6-cyclopropyl-3-fluoroimidazo[1,2-a]pyridin-2-yl)methyl)-1H-1,2,3-triazole-4-carboxamide], for which the negative-log EC50 (pEC50) is over 9.00.

Consider `CCOC(=O)C(C)(C)C(O)c1cc(C2CC2)cn2cc(Cn3cc(C(=O)NCc4ncn5ccc(Cl)c(F)c45)nn3)nc12` (stereo not drawn) [Example I-241a, ethyl 3-(2-((4-(((7-chloro-8-fluoroimidazo[1,5-a]pyridin-1-yl)methyl)carbamoyl)-1H-1,2,3-triazol-1-yl)methyl)-6-cyclopropylimidazo[1,2-a]pyridin-8-yl)-3-hydroxy-2,2-dimethylpropanoate], for which the pEC50 was over 9.00. To `CCn1ncn(-c2cc(C3CC3)cn3cc(Cn4cc(C(=O)NCc5ncn6ccc(Cl)c(F)c56)nn4)nc23)c(=O)c1=O` [Example I-242, N-((7-chloro-8-fluoroimidazo[1,5-a]pyridin-1-yl)methyl)-1-((6-cyclopropyl-8-(1-ethyl-5,6-dioxo-5,6-dihydro-1,2,4-triazin-4(1H)-yl)imidazo[1,2-a]pyridin-2-yl)methyl)-1H-1,2,3-triazole-4-carboxamide] belongs over 9.00.

Take `O=C(NCc1ncn2ccc(Cl)c(F)c12)c1nnc(C(F)(F)c2cn3cc(C4CC4)ccc3n2)o1` [Example I-243, N-((7-chloro-8-fluoroimidazo[1,5-a]pyridin-1-yl)methyl)-5-((6-cyclopropylimidazo[1,2-a]pyridin-2-yl)difluoromethyl)-1,3,4-oxadiazole-2-carboxamide]: the pEC50 is 8.00 to 9.00. To `O=C(O)Cn1c(Cn2cc(C(=O)NCc3ncn4ccc(Cl)c(F)c34)nn2)cc2cc(C3CC3)ccc21` [Example I-244, 2-(2-((4-(((7-chloro-8-fluoroimidazo[1,5-a]pyridin-1-yl)methyl)carbamoyl)-1H-1,2,3-triazol-1-yl)methyl)-5-cyclopropyl-1H-indol-1-yl)acetic acid] belongs 7.00 to 8.00; to `CCOC(=O)C(C)Cc1cc(C2CC2)cn2cc(Cn3cc(C(=O)NCc4ncn5ccc(Cl)c(F)c45)nn3)nc12` (stereo not drawn) [Example I-245a, ethyl 3-(2-((4-(((7-chloro-8-fluoroimidazo[1,5-a]pyridin-1-yl)methyl)carbamoyl)-1H-1,2,3-triazol-1-yl)methyl)-6-cyclopropylimidazo[1,2-a]pyridin-8-yl)-2-methylpropanoate], over 9.00; to `CC(Cc1cc(C2CC2)cn2cc(Cn3cc(C(=O)NCc4ncn5ccc(Cl)c(F)c45)nn3)nc12)C(=O)O` (stereo not drawn) [Example I-245b, 3-(2-((4-(((7-chloro-8-fluoroimidazo[1,5-a]pyridin-1-yl)methyl)carbamoyl)-1H-1,2,3-triazol-1-yl)methyl)-6-cyclopropylimidazo[1,2-a]pyridin-8-yl)-2-methylpropanoic acid], over 9.00.
